System: lung function
Assay: Example 1: percent predicted FEV1 change from baseline
Format: in vivo, human
Description: Change From Baseline in Percent Predicted Forced Expiratory Volume in 1 Second (FEV1) at Each Specified Time Points. FEV1 was the volume of air exhaled from the lungs in the first second of a forced expiration as measured by spirometer. Baseline value was defined as valid and last non-missing value obtained within 28 days prior to participant receiving first study medication. EOT visit was performed within 3 days after the participant's last dose of study drug. […] Analysis was performed on mITT population. Here, ‘number analyzed’=participants with available data for each specified category. Here, ‘O’ in the number analyzed field signifies that none of the participants were available for the analysis at the specified time points.

## CC(C)NC(=O)COc1cccc(-c2nc(Nc3ccc4[nH]ncc4c3)c3ccccc3n2)c1 [Belumosudil, 2-{3-[4-(1H-indazol-5-ylamino)-2-quinazolinyl]phenoxy}-N-(propan-2-yl) acetamide]
Cohort 1: 200 mg QD, Cycle 3, Day 1
  Change From Baseline in Percent Predicted Forced Expiratory Volume in 1 Second (FEV1), Mean (Standard Deviation): 1.1 (4.8) percent predicted FEV1
Cohort 1: 200 mg QD, Cycle 5, Day 1
  Change From Baseline in Percent Predicted Forced Expiratory Volume in 1 Second (FEV1), Mean (Standard Deviation): −3.3 (8.0) percent predicted FEV1
Cohort 1: 200 mg QD, Cycle 7, Day 1
  Change From Baseline in Percent Predicted Forced Expiratory Volume in 1 Second (FEV1), Mean (Standard Deviation): −3.5 (4.6) percent predicted FEV1
Cohort 1: 200 mg QD, Cycle 9, Day 1
  Change From Baseline in Percent Predicted Forced Expiratory Volume in 1 Second (FEV1), Mean (Standard Deviation): −1.7 (6.8) percent predicted FEV1
Cohort 1: 200 mg QD, Cycle 11, Day 1
  Change From Baseline in Percent Predicted Forced Expiratory Volume in 1 Second (FEV1), Mean (Standard Deviation): −4.3 (5.2) percent predicted FEV1
Cohort 1: 200 mg QD, Cycle 12, Day 1
  Change From Baseline in Percent Predicted Forced Expiratory Volume in 1 Second (FEV1), Mean (Standard Deviation): −2.0 (—) percent predicted FEV1
Cohort 1: 200 mg QD, Cycle 13, Day 1
  Change From Baseline in Percent Predicted Forced Expiratory Volume in 1 Second (FEV1), Mean (Standard Deviation): −5.9 (9.3) percent predicted FEV1
Cohort 1: 200 mg QD, Cycle 14, Day 1
  Change From Baseline in Percent Predicted Forced Expiratory Volume in 1 Second (FEV1), Mean (Standard Deviation): 2.0 (—) percent predicted FEV1
Cohort 1: 200 mg QD, Cycle 15, Day 1
  Change From Baseline in Percent Predicted Forced Expiratory Volume in 1 Second (FEV1), Mean (Standard Deviation): −6.7 (11.7) percent predicted FEV1
Cohort 1: 200 mg QD, Cycle 16, Day 1
  Change From Baseline in Percent Predicted Forced Expiratory Volume in 1 Second (FEV1), Mean (Standard Deviation): 2.0 (—) percent predicted FEV1
Cohort 1: 200 mg QD, Cycle 17, Day 1
  Change From Baseline in Percent Predicted Forced Expiratory Volume in 1 Second (FEV1), Mean (Standard Deviation): −5.3 (9.1) percent predicted FEV1
Cohort 1: 200 mg QD, Cycle 19, Day 1
  Change From Baseline in Percent Predicted Forced Expiratory Volume in 1 Second (FEV1), Mean (Standard Deviation): −5.2 (9.9) percent predicted FEV1
Cohort 1: 200 mg QD, Cycle 25, Day 1
  Change From Baseline in Percent Predicted Forced Expiratory Volume in 1 Second (FEV1), Mean (Standard Deviation): −11.0 (15.6) percent predicted FEV1
Cohort 1: 200 mg QD, Cycle 26, Day 1
  Change From Baseline in Percent Predicted Forced Expiratory Volume in 1 Second (FEV1), Mean (Standard Deviation): 0.0 (—) percent predicted FEV1
Cohort 1: 200 mg QD, Cycle 27, Day 1
  Change From Baseline in Percent Predicted Forced Expiratory Volume in 1 Second (FEV1), Mean (Standard Deviation): −6.5 (13.4) percent predicted FEV1
Cohort 1: 200 mg QD, Cycle 29, Day 1
  Change From Baseline in Percent Predicted Forced Expiratory Volume in 1 Second (FEV1), Mean (Standard Deviation): −0.5 (9.2) percent predicted FEV1
Cohort 1: 200 mg QD, Cycle 30, Day 1
  Change From Baseline in Percent Predicted Forced Expiratory Volume in 1 Second (FEV1), Mean (Standard Deviation): 3.0 (—) percent predicted FEV1
Cohort 1: 200 mg QD, Cycle 31, Day 1
  Change From Baseline in Percent Predicted Forced Expiratory Volume in 1 Second (FEV1), Mean (Standard Deviation): −3.5 (12.0) percent predicted FEV1
Cohort 1: 200 mg QD, Cycle 32, Day 1
  Change From Baseline in Percent Predicted Forced Expiratory Volume in 1 Second (FEV1), Mean (Standard Deviation): 1.0 (—) percent predicted FEV1
Cohort 1: 200 mg QD, Cycle 33, Day 1
  Change From Baseline in Percent Predicted Forced Expiratory Volume in 1 Second (FEV1), Mean (Standard Deviation): 5.0 (5.7) percent predicted FEV1
Cohort 1: 200 mg QD, Cycle 34, Day 1
  Change From Baseline in Percent Predicted Forced Expiratory Volume in 1 Second (FEV1), Mean (Standard Deviation): 2.0 (—) percent predicted FEV1
Cohort 1: 200 mg QD, Cycle 35, Day 1
  Change From Baseline in Percent Predicted Forced Expiratory Volume in 1 Second (FEV1), Mean (Standard Deviation): 5.0 (0.0) percent predicted FEV1
Cohort 1: 200 mg QD, Cycle 36, Day 1
  Change From Baseline in Percent Predicted Forced Expiratory Volume in 1 Second (FEV1), Mean (Standard Deviation): 3.0 (—) percent predicted FEV1
Cohort 1: 200 mg QD, Cycle 37, Day 1
  Change From Baseline in Percent Predicted Forced Expiratory Volume in 1 Second (FEV1), Mean (Standard Deviation): −1.0 (—) percent predicted FEV1
Cohort 1: 200 mg QD, Cycle 38, Day 1
  Change From Baseline in Percent Predicted Forced Expiratory Volume in 1 Second (FEV1), Mean (Standard Deviation): 1.0 (—) percent predicted FEV1
Cohort 1: 200 mg QD, Cycle 39, Day 1
  Change From Baseline in Percent Predicted Forced Expiratory Volume in 1 Second (FEV1), Mean (Standard Deviation): 10.0 (2.8) percent predicted FEV1
Cohort 1: 200 mg QD, Cycle 40, Day 1
  Change From Baseline in Percent Predicted Forced Expiratory Volume in 1 Second (FEV1), Mean (Standard Deviation): −1.0 (—) percent predicted FEV1
Cohort 1: 200 mg QD, Cycle 41, Day 1
  Change From Baseline in Percent Predicted Forced Expiratory Volume in 1 Second (FEV1), Mean (Standard Deviation): 15.0 (—) percent predicted FEV1
Cohort 1: 200 mg QD, Cycle 43, Day 1
  Change From Baseline in Percent Predicted Forced Expiratory Volume in 1 Second (FEV1), Mean (Standard Deviation): 16.0 (—) percent predicted FEV1
Cohort 1: 200 mg QD, Cycle 47, Day 1
  Change From Baseline in Percent Predicted Forced Expiratory Volume in 1 Second (FEV1), Mean (Standard Deviation): 5.0 (—) percent predicted FEV1
Cohort 1: 200 mg QD, Cycle 48, Day 1
  Change From Baseline in Percent Predicted Forced Expiratory Volume in 1 Second (FEV1), Mean (Standard Deviation): 3.0 (—) percent predicted FEV1
Cohort 1: 200 mg QD, Cycle 49, Day 1
  Change From Baseline in Percent Predicted Forced Expiratory Volume in 1 Second (FEV1), Mean (Standard Deviation): 8.0 (—) percent predicted FEV1
Cohort 1: 200 mg QD, Cycle 51, Day 1
  Change From Baseline in Percent Predicted Forced Expiratory Volume in 1 Second (FEV1), Mean (Standard Deviation): 8.0 (—) percent predicted FEV1
Cohort 1: 200 mg QD, Cycle 52, Day 1
  Change From Baseline in Percent Predicted Forced Expiratory Volume in 1 Second (FEV1), Mean (Standard Deviation): 0.0 (—) percent predicted FEV1
Cohort 1: 200 mg QD, Cycle 53, Day 1
  Change From Baseline in Percent Predicted Forced Expiratory Volume in 1 Second (FEV1), Mean (Standard Deviation): 9.0 (—) percent predicted FEV1
Cohort 1: 200 mg QD, Cycle 54, Day 1
  Change From Baseline in Percent Predicted Forced Expiratory Volume in 1 Second (FEV1), Mean (Standard Deviation): 4.0 (—) percent predicted FEV1
Cohort 1: 200 mg QD, Cycle 55, Day 1
  Change From Baseline in Percent Predicted Forced Expiratory Volume in 1 Second (FEV1), Mean (Standard Deviation): 13.0 (—) percent predicted FEV1
Cohort 1: 200 mg QD, Cycle 56, Day 1
  Change From Baseline in Percent Predicted Forced Expiratory Volume in 1 Second (FEV1), Mean (Standard Deviation): 4.0 (—) percent predicted FEV1
Cohort 1: 200 mg QD, Cycle 57, Day 1
  Change From Baseline in Percent Predicted Forced Expiratory Volume in 1 Second (FEV1), Mean (Standard Deviation): 13.0 (—) percent predicted FEV1
Cohort 1: 200 mg QD, Cycle 58, Day 1
  Change From Baseline in Percent Predicted Forced Expiratory Volume in 1 Second (FEV1), Mean (Standard Deviation): 5.0 (—) percent predicted FEV1
Cohort 1: 200 mg QD, Cycle 60, Day 1
  Change From Baseline in Percent Predicted Forced Expiratory Volume in 1 Second (FEV1), Mean (Standard Deviation): 4.0 (—) percent predicted FEV1
Cohort 1: 200 mg QD, Cycle 61, Day 1
  Change From Baseline in Percent Predicted Forced Expiratory Volume in 1 Second (FEV1), Mean (Standard Deviation): 10.0 (—) percent predicted FEV1
Cohort 1: 200 mg QD, Cycle 62, Day 1
  Change From Baseline in Percent Predicted Forced Expiratory Volume in 1 Second (FEV1), Mean (Standard Deviation): 2.0 (—) percent predicted FEV1
Cohort 1: 200 mg QD, Cycle 63, Day 1
  Change From Baseline in Percent Predicted Forced Expiratory Volume in 1 Second (FEV1), Mean (Standard Deviation): 13.0 (—) percent predicted FEV1
Cohort 1: 200 mg QD, Cycle 67, Day 1
  Change From Baseline in Percent Predicted Forced Expiratory Volume in 1 Second (FEV1), Mean (Standard Deviation): 14.0 (—) percent predicted FEV1
Cohort 1: 200 mg QD, EOT
  Change From Baseline in Percent Predicted Forced Expiratory Volume in 1 Second (FEV1), Mean (Standard Deviation): −1.4 (9.0) percent predicted FEV1
Cohort 2: 200 mg BID, Cycle 3, Day 1
  Change From Baseline in Percent Predicted Forced Expiratory Volume in 1 Second (FEV1), Mean (Standard Deviation): −1.8 (7.1) percent predicted FEV1
Cohort 2: 200 mg BID, Cycle 5, Day 1
  Change From Baseline in Percent Predicted Forced Expiratory Volume in 1 Second (FEV1), Mean (Standard Deviation): −5.0 (6.5) percent predicted FEV1
Cohort 2: 200 mg BID, Cycle 7, Day 1
  Change From Baseline in Percent Predicted Forced Expiratory Volume in 1 Second (FEV1), Mean (Standard Deviation): −2.6 (9.4) percent predicted FEV1
Cohort 2: 200 mg BID, Cycle 8, Day 1
  Change From Baseline in Percent Predicted Forced Expiratory Volume in 1 Second (FEV1), Mean (Standard Deviation): 1.0 (—) percent predicted FEV1
Cohort 2: 200 mg BID, Cycle 9, Day 1
  Change From Baseline in Percent Predicted Forced Expiratory Volume in 1 Second (FEV1), Mean (Standard Deviation): −5.9 (11.7) percent predicted FEV1
Cohort 2: 200 mg BID, Cycle 10, Day 1
  Change From Baseline in Percent Predicted Forced Expiratory Volume in 1 Second (FEV1), Mean (Standard Deviation): −6.0 (8.5) percent predicted FEV1
Cohort 2: 200 mg BID, Cycle 11, Day 1
  Change From Baseline in Percent Predicted Forced Expiratory Volume in 1 Second (FEV1), Mean (Standard Deviation): −4.0 (8.5) percent predicted FEV1
Cohort 2: 200 mg BID, Cycle 12, Day 1
  Change From Baseline in Percent Predicted Forced Expiratory Volume in 1 Second (FEV1), Mean (Standard Deviation): −1.0 (—) percent predicted FEV1
Cohort 2: 200 mg BID, Cycle 13, Day 1
  Change From Baseline in Percent Predicted Forced Expiratory Volume in 1 Second (FEV1), Mean (Standard Deviation): −2.5 (14.7) percent predicted FEV1
Cohort 2: 200 mg BID, Cycle 14, Day 1
  Change From Baseline in Percent Predicted Forced Expiratory Volume in 1 Second (FEV1), Mean (Standard Deviation): 0.0 (—) percent predicted FEV1
Cohort 2: 200 mg BID, Cycle 15, Day 1
  Change From Baseline in Percent Predicted Forced Expiratory Volume in 1 Second (FEV1), Mean (Standard Deviation): −2.3 (5.1) percent predicted FEV1
Cohort 2: 200 mg BID, Cycle 16, Day 1
  Change From Baseline in Percent Predicted Forced Expiratory Volume in 1 Second (FEV1), Mean (Standard Deviation): −8.0 (15.6) percent predicted FEV1
Cohort 2: 200 mg BID, Cycle 17, Day 1
  Change From Baseline in Percent Predicted Forced Expiratory Volume in 1 Second (FEV1), Mean (Standard Deviation): −6.0 (7.2) percent predicted FEV1
Cohort 2: 200 mg BID, Cycle 18, Day 1
  Change From Baseline in Percent Predicted Forced Expiratory Volume in 1 Second (FEV1), Mean (Standard Deviation): −7.5 (10.6) percent predicted FEV1
Cohort 2: 200 mg BID, Cycle 19, Day 1
  Change From Baseline in Percent Predicted Forced Expiratory Volume in 1 Second (FEV1), Mean (Standard Deviation): −6.3 (5.5) percent predicted FEV1
